Experimental data taken from patent US20260344661A1, “USE OF AN ALKYLETHER SULFATE FOR IMPROVING THE EFFICACY OF HERBICIDES” (BASF SE, priority 2022, published 2026).

Key:
KCHSC (kochia) = assay: Greenhouse post-emergence weed control, damage vs untreated (KCHSC); type: in vivo, Kochia scoparia; conditions: 20 DAT
Experimental: (§1) A greenhouse study was conducted to evaluate the effect of the alkylether sulfates of formula (I) and other adjuvants on the weed control efficacy of glufosinate. Seedlings of grass plants (AVEFA, ECHCG, DIGSA and SETVI) and broadleaf weeds (KCHSC, CHEAL, AMAPA, AMATA and ABUTH) were grown to a height of 3 to 20 cm, depending on the plant habit in 10×10×10 cm pots filled with sandy planting soil (Limburgerhof soil). The weeds were treated with postemergence applications of glufosinate ammonium at the respective application rates given in the following tables, either alone or combined with various amounts of the respective adjuvants.
(§2) For this, the herbicide formulation and the respective adjuvant were introduced into tap water to obtain the spray liquor. […] The spray liquor was then applied to the plant a spray volume of 200 l/ha using a sprayer (XR Teejet 110015).
(§3) The test period extended over 21 days. During this time, the plants were tended, and their response to the treatments with active compound was evaluated.
(§4) The evaluation for the damage caused by the chemical compositions was carried out using a scale from 0 to 100%, compared to the untreated control plants. Here, 0 means no damage and 100 means complete destruction of the plants.
The plants used in the greenhouse experiments belonged to the following species: […]

AVEFA (wild oat) = assay: Greenhouse post-emergence weed control, damage vs untreated (AVEFA); type: in vivo, Avena fatua
Experimental: as §1, §2, §3, §4
The plants used in the greenhouse experiments belonged to the following species:
The results are summarized in the following tables 1 to 15 that show the applied doses of the individual actives as gram of active ingredient per hectare (g ai/ha), the herbicidal activity of the individual […]

[1] = 5 g ai/ha L-glufosinate (so in the source), no adjuvant
[2] = g ai/ha: 42.375 solo (CE1-C), 42.375 + 66.97 combined (IE3-A/B/C, CE2-J)
[3] = g ai/ha: 84.75 solo (CE1-C), 84.75 + 133.94 combined (IE3-A/B/C, CE2-J)
[4] = g ai/ha: 169.5 solo (CE1-C), 169.5 + 267.89 combined (IE3-A/B/C, CE2-J)
[5] = g ai/ha: 339 solo (CE1-C), 339 + 535.77 combined (IE3-A/B/C, CE2-J)
[6] = 37.5 g ai/ha L-glufosinate, adjuvant g ai/ha: none (CE1-B), 56 (IE2-A), 62.125 (IE2-B), 51.625 (CE2-F)
[7] = 150 g ai/ha L-glufosinate, adjuvant g ai/ha: none (CE1-B), 223 (IE2-A), 248.5 (IE2-B), 206.5 (CE2-F)
[8] = 300 g ai/ha L-glufosinate, adjuvant g ai/ha: none (CE1-B), 446 (IE2-A), 497 (IE2-B), 413 (CE2-F)

Question: Which results are given for `CP(=O)(O)CC[C@H](N)C(=O)O.N` [CE1-B, ammonium (2S)-2-amino-4-(methylphosphinato)butyric acid]?
Answer: % activity (KCHSC (kochia); [1]): 5%; % activity KCHSC (KCHSC (kochia); [2]): 3%; % activity KCHSC (KCHSC (kochia); [3]): 3%; % activity KCHSC (KCHSC (kochia); [4]): 28%; % activity KCHSC (KCHSC (kochia); [5]): 35%; % activity (KCHSC (kochia); [6]): 0%; % activity (KCHSC (kochia); [7]): 5%; % activity (KCHSC (kochia); [8]): 10%; % activity (AVEFA (wild oat); [1]): 5%; % activity (AVEFA (wild oat); [6]): 0%; % activity (AVEFA (wild oat); [7]): 10%; % activity (AVEFA (wild oat); [8]): 20%; % activity AVEFA (AVEFA (wild oat); [2]): 3%; % activity AVEFA (AVEFA (wild oat); [3]): 3%; % activity AVEFA (AVEFA (wild oat); [4]): 5%; % activity AVEFA (AVEFA (wild oat); [5]): 8%
